Assays:
SNU475 cells [1] = assay: Optical diffraction tomography (ODT) imaging of vesicles and organelles in SNU475 cells; type: cell-based, human
Description: To confirm changes in vesicles upon treatment with an autophagy modulator, SNU475 cells, which are a human hepatoma cell line, were treated with 10 μM thapsigargin, which is an autophagy activator, and then the changes in vesicles in the cells were examined.
More specifically, a SNU475 cell line was prepared in a TomoDish and the SNU475 cells were treated with 10 μM thapsigargin, and then optical diffraction tomography (ODT) images were generated by using HT-2H fluorescence holotomography (Tomocube).
SNU475 cells were treated with 10 μM thapsigargin to induce ER stress, and then changes in the refractive index and radius of vesicles produced in the cells were measured on the basis of images confirmed in Example 1, and the results thereof are shown in FIG. 2. In addition, SNU475 cells were treated with 10 μM thapsigargin, and the number and volume of vesicles in the SNU475 cells treated with thapsigargin were observed over time for 2 hours, and the results thereof are shown in FIG. 3.
To confirm statistical changes in the density and refractive index of vesicles and organelles upon treatment with thapsigargin, the densities and refractive indices of cells before and after SNU475 cells were treated with thapsigargin (10 μM) were compared. In addition, to confirm changes in the densities of organelles upon treatment with thapsigargin, the refractive indices of a nucleolus (No), an endoplasmic reticulum (ER), a cytosol (Cyt), and a plasma membrane (PM) were measured.
To confirm whether the same results as the case of thapsigargin can be obtained upon treatment with autophagy modulators other than thapsigargin, SNU475 cells were treated with each of CPA (20 μM) and TC (60 ug/mL) to induce ER stress, and then changes in vesicles produced in the cells were observed using HT-2H fluorescence holotomography (Tomocube). For observation, optical diffraction tomography (ODT) images 10 hours after treatment with CPA and ODT images 2 hours after treatment with TC were generated, and the results thereof are shown in FIG. 8.

SNU475 cells [2] = assay: Fluorescent tracker (ER-tracker, lysosome-tracker, mito-tracker) imaging by super-resolution microscopy (Airyscan); type: cell-based, human
Description: Changes in the endoplasmic reticulum and lysosomes were measured using a confocal microscope and fluorescent trackers. As the fluorescent trackers, ER-tracker, which enables the specific observation of only the endoplasmic reticulum, and lysosome-tracker, which enables the specific observation of only lysosomes, were used.
Specifically, SNU475 cells were treated with thapsigargin (10 μM) and then stained with ER-tracker or lysosome-tracker, the kinetics of the endoplasmic reticulum and lyosomes were analyzed by super-resolution microscopy (Airyscan), and the results thereof are shown in FIG. 5.
To confirm that high-density vesicles produced upon treatment with thapsigargin are specific to the endoplasmic reticulum, the kinetics of mitochondria were analyzed in the same manner as in 4.1 above by using mito-tracker, which is a mitochondria-specific tracker, and the results thereof are shown in FIG. 6.

SNU475 cells [3] = assay: ODT setup linking three-dimensional ODT imaging and two-dimensional fluorescence; type: cell-based, human; settings: SNU475 cells after treatment with thapsigargin, ODT plus 2D fluorescence
Description: Additionally, changes in the endoplasmic reticulum and lysosomes in SNU475 cells treated with thapsigargin were analyzed using an ODT setup that can link three-dimensional ODT imaging and two-dimensional fluorescence. […] It was also confirmed that vesicles were produced in the ER region, followed by fusion with lysosomes.

CCPG1 = assay: Colocalization of ER-phagy receptors with LC3 by immunofluorescence (IF); type: cell-based; settings: 10 μM thapsigargin, IF (FIG. 7)
Description: (§1) To measure the activation levels of an autophagy marker and an ER-phagy marker after treatment with thapsigargin, the colocalization of ER-phagy receptors was measured.
(§2) More specifically, after treatment with thapsigargin (10 μM), the activation of CCPG1, FAM134B, RTN3, and SEC62 was examined by immunofluorescence (IF) analysis, and then the results thereof are shown in FIG. 7.

FAM134B = assay: as above; type: cell-based; settings: 10 μM thapsigargin, IF (FIG. 7)
Description: as §1, §2

RTN3 = assay: as above; type: cell-based; settings: 10 μM thapsigargin, IF (FIG. 7)
Description: as §1, §2

SEC62 = assay: as above; type: cell-based; settings: 10 μM thapsigargin, IF (FIG. 7)
Description: as §1, §2

[4] = 10 μM thapsigargin, observed for 2 hours (FIG. 3)

Molecule	change in the refractive index of vesicles over time (SNU475 cells [1]; 10 μM thapsigargin (FIG. 2A))	change in the radius of vesicles over time (SNU475 cells [1]; 10 μM thapsigargin (FIG. 2B))	ER-phagy induction (SNU475 cells [1]; 10 μM thapsigargin (FIG. 4))	density of induced vesicles compared with the endoplasmic reticulum (SNU475 cells [1]; 10 μM thapsigargin (FIG. 4))	generation of high-density vesicles (SNU475 cells [1]; 10 μM thapsigargin, ODT images (FIG. 1))	change in the total number of vesicles over time (SNU475 cells [1]; [4])	change in volume of vesicles over time (SNU475 cells [1]; [4])	density of the endoplasmic reticulum upon treatment (SNU475 cells [1]; before and after 10 μM thapsigargin (FIG. 4C))	production of vesicles and lysosomes containing ER components (SNU475 cells [2]; 10 μM thapsigargin, ER-tracker or lysosome-tracker (FIG. 5))	time difference of production of large lysosomes relative to the ER (SNU475 cells [2]; 10 μM thapsigargin, lysosome-tracker (FIG. 5B))	mitochondrial components in high-density vesicles (SNU475 cells [2]; thapsigargin, mito-tracker (FIG. 6))	colocalization of high-density vesicles produced in the cytoplasm (SNU475 cells [3])	activation of CCPG1 through colocalization with LC3 (CCPG1)	activation of FAM134B through colocalization with LC3 (FAM134B)	activation of RTN3 through colocalization with LC3 (RTN3)	activation of SEC62 through colocalization with LC3 (SEC62)	change in vesicles (SNU475 cells [1]; TC 60 ug/mL, ODT images 2 hours after treatment (FIG. 8B))
C/C=C(/C)C(=O)O[C@H]1C(C)=C2[C@H]([C@@H]1OC(=O)CCCCCCC)[C@@](C)(OC(C)=O)C[C@H](OC(=O)CCC)[C@@]1(O)[C@H]2OC(=O)[C@@]1(C)O [thapsigargin]	decreased over time	increased over time	induced	higher density than the endoplasmic reticulum	high-density vesicles were generated	decreased over time	increased over time	decreased	vesicles and lysosomes that contain ER components were produced	about 15 minutes	did not include mitochondrial components	specifically colocalized with the endoplasmic reticulum and lysosomes	activated	activated	activated	activated	
tunicamycin [TC]																	the same changes in the vesicles as those upon treatment with thapsigargin occurred

Source: patent US20260092868A1, “METHOD FOR SCREENING FOR AUTOPHAGY MODULATOR” (THE ASAN FOUNDATION, priority 2022, published 2026)
